Results from publication PMC3401595 (Bioorganic & medicinal chemistry, 2012).

Tests used:
[1] = higher than I; cited from earlier work
[2] = higher than I; cited from earlier work; remark: listed apart in the source
δ opioid receptor = δ opioid receptor (Homo sapiens, UniProt P41143); assay: biochemical; type: binding
[3] = systemic administration; greater than I; cited from earlier work

Chain of δ opioid receptor (P41143 whole entry): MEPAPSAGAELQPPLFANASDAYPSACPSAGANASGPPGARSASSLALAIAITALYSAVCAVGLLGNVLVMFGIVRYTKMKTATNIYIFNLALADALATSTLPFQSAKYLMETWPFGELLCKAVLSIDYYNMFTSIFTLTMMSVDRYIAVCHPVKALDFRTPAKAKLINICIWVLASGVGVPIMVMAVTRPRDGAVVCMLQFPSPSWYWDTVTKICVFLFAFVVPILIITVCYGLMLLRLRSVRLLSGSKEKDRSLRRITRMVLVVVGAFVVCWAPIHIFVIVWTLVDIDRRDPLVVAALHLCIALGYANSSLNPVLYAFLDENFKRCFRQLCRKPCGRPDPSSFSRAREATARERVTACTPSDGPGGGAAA

SMILES | Ki (δ opioid receptor) | other results
CN1CCC23c4c5ccc(O)c4OC2(C)C(=O)CCC3(OCCCc2ccccc2)C1C5 (centres unmarked) [III, 14-phenylpropyloxymetopon] | – | potency in the tail flick assay as compared to I (morphine) [1]: 24000 fold; potency in the hot plate assay as compared to I (morphine) [2]: 8500 fold
CN(CCOCCCc1ccccc1)Cc1ccccc1 [Compound 34, N-benzyl-N-methyl-2-(3-phenylpropoxy)ethanamine] | > 10 µM | –
CCCCN(CCCC)CCOCCCc1ccccc1 [Compound 18, N,N-dibutyl-2-(3-phenylpropoxy)ethanamine] | > 10 µM | –
CN(CCOC/C=C/c1ccccc1)Cc1ccccc1 [Compound 33, N-benzyl-2-(cinnamyloxy)-N-methylethanamine] | > 10 µM | –
CO[C@@]12CCC(=O)[C@]3(C)Oc4c(O)ccc5c4[C@@]31CCN(C)[C@@H]2C5 [II, 14-methoxymetopon] | – | systemic antinociceptive potency relative to I (morphine) [3]: 500 fold
CCCCN(CCCC)CCOC/C=C/c1ccccc1 [Compound 17, 2-(Cinnamyloxy)-N,N-dibutylethanamine] | > 10 µM | –
CN(CCCc1ccccc1)CCOC/C=C/c1ccccc1 [Compound 37, 2-(Cinnamyloxy)-N-methyl-N-phenylpropylethanamine] | > 10 µM | –
